Experimental data taken from patent US7595171B2 (Sinotrade Technology Limited, priority 2005, dated 2009).
Read-outs that look alike come from different tables or passages of the source. Marks after values point to notes of the source that are not given here.

Key:
Weed [1] = test: Pre-emergence herbicide trial: weed control; type: in vivo
A. palaestina = test: Seed germination after gibberellic acid pre-soak; type: in vivo, Adonis palaestina
Description: Adonis […] populations were evaluated for seed viability and germination. Although seed viability is fair (about 30 to about 70%), germination is very low.

Adonis [2] = test: Pre-emergence herbicide trial: Adonis seedling establishment; type: in vivo, Adonis palaestina; settings: for Adonis seedling density: after graminicide stress treatment
Weed [3] = test: Container trials: weed control at reduced metribuzin level; type: in vivo
Adonis seedlings = system: Adonis seedlings
Description: Seedlings emerging from metribuzin-treated soil were sprayed with a grass-specific herbicide [graminicide; (RS)-7-(4,6-dimethoxypyrimidin-2-ylthio)-3-methyl-2-benzofuran-1(3H)-one] at the seed leaf stage; this would normally be expected to “check” the seedlings (i.e.; cause a degree of non-lethal stress) when applied at the usual time (three true leaf stage).

[4] = Rainbow trout feeding trial: astaxanthin levels in fillets before and after freezing and smoking; type: in vivo; settings: rainbow trout, fillet (flesh), oral, Control treatment, averaged over three fillet zones, read-out: HPLC astaxanthin level Average
Description: (§1) Rainbow trout fed synthetic or Adonis-derived astaxanthin in a feeding trial were harvested 63 days after the feeding trial started and the astaxanthin levels were examined spectrophotometrically (Minolta Chroma Meter) and chemically (by HPLC analysis after lipid removal from the flesh extract) before and after freezing (2 months) and smoking. The initial astaxanthin levels in the feed were adjusted to achieve similar levels of pigmentation of the fish before treatments were carried out. Because pigment levels vary along the length of the fish, measurements were carried out at three positions along each fish (head, mid-body and tail).

Rainbow trout = test: as above; type: in vivo; settings: averaged over three fillet zones
Description: as §1

Sclerotinia sclerotiorum = test: Dosage effect of pure cardenolides on pathogen growth (Sclerotinia); type: cell-based; settings: pure cardenolide
Description: Two different cardenolides (cymarin and strophanthidin) were assessed for their dosage effect on pathogen response.

Adonis [5] = settings: at high pH
Description: Container trials were conducted on the effect of sand content and soil pH on metribuzin-associated Adonis mortality.

[6] = 25 % manufacturer's recommended rate
[7] = 50 % manufacturer's recommended rate
[8] = 12.5 % manufacturer's recommended rate

Question: What does the source list for `COC(=O)NS(=O)(=O)c1ccc(N)cc1` [Asulox ®, methyl(4-aminophenyl)sulfonylaminoformate]?
Answer: Weed density (Weed [1]; [6]): 86 % cover; Weed density (Weed [1]; [7]): 74 % cover; Weed density (Weed [1]; 100 % manufacturer's recommended rate): 87 % cover; weed control (Weed [1]; pre-emergence herbicide): did not achieve much weed control

Question: Which germination (A. palaestina; 24-hour incubation with GA in ethanol at room temperature) does the source give for `C=C1C[C@]23C[C@@]1(O)CC[C@H]2[C@@]12C=C[C@H](O)[C@@](C)(C(=O)O1)[C@H]2[C@@H]3C(=O)O` [Gibberellic acid, gibberellic acid] here?
Answer: further improved germination

Question: What about the “% germination” value (A. palaestina; 1000 ppm, pre-soak 24 hours, 4 °C) of the same compound?
Answer: 4.3%

Question: What about the “% germination” value (A. palaestina; 1000 ppm, pre-soak 24 hours, 16 °C) of the same compound?
Answer: 8.7%

Question: What about the “% germination” value (A. palaestina; 1000 ppm, pre-soak 48 hours, 4 °C) of the same compound?
Answer: 13.7%

Question: And the “% germination” value (A. palaestina; 1000 ppm, pre-soak 48 hours, 16 °C)?
Answer: 22.3%

Question: What about the “% germination” value (A. palaestina; 2000 ppm, pre-soak 24 hours, 4 °C) of the same compound?
Answer: 10.7%

Question: And the “% germination” value (A. palaestina; 2000 ppm, pre-soak 24 hours, 16 °C)?
Answer: 12.6%

Question: And the “% germination” value (A. palaestina; 2000 ppm, pre-soak 48 hours, 4 °C)?
Answer: 20.4%

Question: And the “% germination” value (A. palaestina; 2000 ppm, pre-soak 48 hours, 16 °C)?
Answer: 28.7%

Question: What about the “% germination” value (A. palaestina; 3500 ppm, pre-soak 24 hours, 4 °C) of the same compound?
Answer: 21.4%

Question: And the “% germination” value (A. palaestina; 3500 ppm, pre-soak 24 hours, 16 °C)?
Answer: 25.7%

Question: And the “% germination” value (A. palaestina; 3500 ppm, pre-soak 48 hours, 4 °C)?
Answer: 28.7%

Question: What about the “% germination” value (A. palaestina; 3500 ppm, pre-soak 48 hours, 16 °C) of the same compound?
Answer: 45.7%

Question: What about the “% germination” value (A. palaestina; 5000 ppm, pre-soak 24 hours, 4 °C) of the same compound?
Answer: 28.0%

Question: What about the “% germination” value (A. palaestina; 5000 ppm, pre-soak 24 hours, 16 °C) of the same compound?
Answer: 34.7%

Question: What about the “% germination” value (A. palaestina; 5000 ppm, pre-soak 48 hours, 4 °C) of the same compound?
Answer: 40.3%

Question: And the “% germination” value (A. palaestina; 5000 ppm, pre-soak 48 hours, 16 °C)?
Answer: 64.7%

Question: And the germination (A. palaestina; pre-soaking seed in 5000 ppm for 24 hours before sowing)?
Answer: 64.7%

Question: Which results are given for `CSc1nnc(C(C)(C)C)c(=O)n1N` [Metribuzin, 4-amino-6-tert-butyl-4,5-dihydro-3-methlythio-1,2,4-triazin-5-one]?
Answer: Adonis seedling density (Adonis [2]; [8]): 12.1 m^−2; Adonis seedling density (Adonis [2]; [6]): 5.9 m^−2; Adonis seedling density (Adonis [2]; [7]): 1.2 m^−2; safety on Adonis (Adonis [2]; pre-emergence herbicide): could be used safely on Adonis; Weed density (Weed [1]; [8]): 85 % cover; Weed density (Weed [1]; [6]): 79 % cover; Weed density (Weed [1]; [7]): 56 % cover; weed control (Weed [3]; 125 g/ha): inadequate; weed control (Weed [3]; 250 g/ha): reasonable weed control; seedling death (Adonis seedlings; 500 g/ha metribuzin, graminicide sprayed at seed leaf stage): 30%; Adonis density (Adonis seedlings; Metribuzin 250 g/ha, +Graminicide, −Urea): 97 # plants m^−2; Adonis density (Adonis seedlings; Metribuzin 250 g/ha, −Graminicide, +Urea): 107 # plants m^−2; Adonis density (Adonis seedlings; Metribuzin 250 g/ha, −Graminicide, −Urea): 103 # plants m^−2; Adonis density (Adonis seedlings; Metribuzin 500 g/ha, +Graminicide, +Urea): 94 # plants m^−2; Adonis density (Adonis seedlings; Metribuzin 500 g/ha, +Graminicide, −Urea): 65 # plants m^−2; Adonis density (Adonis seedlings; Metribuzin 500 g/ha, −Graminicide, +Urea): 104 # plants m^−2; Adonis density (Adonis seedlings; Metribuzin 500 g/ha, −Graminicide, −Urea): 98 # plants m^−2; Adonis density (Adonis seedlings; Metribuzin (pre) + 250 (post) g/ha, +Graminicide, +Urea): 107 # plants m^−2; Adonis density (Adonis seedlings; Metribuzin (pre) + 250 (post) g/ha, +Graminicide, −Urea): 105 # plants m^−2; Adonis density (Adonis seedlings; Metribuzin (pre) + 250 (post) g/ha, −Graminicide, +Urea): 102 # plants m^−2; Adonis density (Adonis seedlings; Metribuzin (pre) + 250 (post) g/ha, −Graminicide, −Urea): 100 # plants m^−2

Question: Which concentration at 63 days [4] does the source give for `CC1=C(/C=C/C(C)=C/C=C/C(C)=C/C=C/C=C(C)/C=C/C=C(C)/C=C/C2=C(C)C(=O)C(O)CC2(C)C)C(C)(C)CC(O)C1=O` (stereo not drawn) [Synthetic, 3,3′-dihydroxy-β,β-carotene-4,4′-dione] here?
Answer: 15100 ng/g

Question: What about the “Spectrophotometric (Hunter a values) Average” value (shortened to “Spectrophotometric”) (Rainbow trout; Control treatment, harvested 63 days) of the same compound?
Answer: 6.5

Question: And the “HPLC astaxanthin level Average” value (Rainbow trout; Frozen (2 months))?
Answer: 11.2 mg/kg fish

Question: What about the “Spectrophotometric” value (Rainbow trout; Frozen (2 months)) of the same compound?
Answer: 4.2

Question: What about the “HPLC astaxanthin level Average” value (Rainbow trout; Smoked) of the same compound?
Answer: 14.0 mg/kg fish

Question: What about the “Spectrophotometric” value (Rainbow trout; Smoked) of the same compound?
Answer: 5.8

Question: Which Adonis density (Adonis seedlings; Metribuzin 0 g/ha, −Graminicide, +Urea) does the source give for `NC(N)=O` [Urea, urea] here?
Answer: 95 # plants m^−2

Question: For `CO[C@H]1C[C@H](O[C@H]2CC[C@]3(C=O)[C@H]4CC[C@]5(C)[C@@H](C6=CC(=O)OC6)CC[C@]5(O)[C@@H]4CC[C@]3(O)C2)O[C@H](C)[C@H]1O` [cymarin], which “growth of Sclerotinia” value (Sclerotinia sclerotiorum) is on record?
Answer: inhibited

Question: With `CCOP(=S)(OCC)Oc1nc(Cl)n(C(C)C)n1` [isazophos, O-(5-Chloro-1-(1-methylethyl)-1H-1,2,4-triazol-3-yl) O,O-diethyl phosphorothioate] as the compound, how does the “interaction with metribuzin (Adonis mortality)” value (Adonis [5]) read?
Answer: negative interaction

Question: With `C[C@]12CC[C@H]3[C@@H](CC[C@]4(O)C[C@@H](O)CC[C@]34C=O)[C@@]1(O)CC[C@@H]2C1=CC(=O)OC1` [strophanthidin] as the compound, how does the “growth of Sclerotinia” value (Sclerotinia sclerotiorum) read?
Answer: inhibited
